# Experimental data published in patent EP0576766A1, “Propanolamine derivatives, their preparation and use” (NOVO NORDISK A/S, priority 1992, dated 1994).
# Structures can show the parent of a compound that is named as a salt.
# Test system: voltage operated calcium channels (VOC)
# Experiment: Inhibition of depolarization-stimulated 45Ca uptake into brain synaptosomes
# Type: biochemical
# Conditions: inhibition of stimulated uptake of ⁴⁵Ca in depolarized (145 mM KCl) rat cerebral cortex synaptosomes (P₂ fraction), corrected for basal uptake; 15 s incubation; estimated from dose response curves
# Text: The pharmacological properties of the compounds of the invention can be illustrated by determining their capability to inhibit calcium uptake into brain synaptosomes.
# Depolarization of neuronal membranes leads to an opening of socalled "voltage operated calcium channels" (VOC) in the membranes which allows a massive influx of calcium from the extracellular space. A crude synaptosomal preparation (socalled P₂ fraction) contains small vesicles surrounded by neuronal membrane and it is possible in such a preparation to study a depolarization-induced opening of VOC.
# A male Wistar rat is decapitated and the cerebral cortex removed and homogenized in 10 ml. of ice-cold 0.32 M sucrose using a glass homogenizer with a teflon pestle. All subsequent steps for isolation of synaptosomes are done at 0-4°C. The homogenate is centrifuged at 1000 x g for 10 min and the resulting supernatant is re-centrifuged at 18000 x g for 20 min. This pellet (P₂) is resuspended in 0.32 M sucrose (5 ml per g of original tissue) with a teflon pestle.
# The tubes are pre-incubated for 30 min on ice and then for 6 min at 37°C in a water bath.
# The incubation is continued for 15 s.
# The amount of radioactivity on the filter disc is determined by liquid scintillation spectrometry.
# Test substances are dissolved in 10 ml of 48% ethanol at a concentration of 0.44 mg/ml. Dilution are made in 48% ethanol to give final concentrations of 0.1, 0.3, 1, 3 and 10 µg/ml. Experiments are performed in triplicate. Controls for depolarized and nondepolarized samples are included in the assay and test substances are only tested in depolarized samples.
# The test value will be given as IC₅₀ (the concentration (µg/ml) of test substance which inhibit 50% of stimulated uptake of ⁴⁵Ca (uptake in depolarized samples corrected for basal uptake in nondepolarized samples )). The IC₅₀ value is estimated from dose response curves.
row,SMILES,IC₅₀ [µg/mL]
1,"CC(=O)Nc1ccc(C(CCN2CCCCC2)Oc2ccc(C(F)(F)F)cc2)cc1.O=C(O)C(=O)O (stereo not drawn) [Compound 23, 1-(3-(4-Acetamidophenyl)-3-(4-trifluoromethylphenoxy)propyl)piperidine, oxalate]",4.0
2,"FC(F)(F)c1ccc(OC2c3ccccc3CC2CN2CCCCC2)cc1 (stereo not drawn) [Compound 20, trans-1-(1-(4-Trifluoromethylphenoxy)indan-2-yl)methyl piperidine, hydrochloride]",8.0
3,"Cl.c1ccc(C(CCN2CCOCC2)Oc2ccc3c(c2)CCC3)cc1 (stereo not drawn) [Compound 2, 4-(3-(5-Indanyloxy)-3-phenylpropyl)morpholine, hydrochloride]",16
4,"CC(=O)Nc1cccc(C(CCN2CCCCC2)Oc2ccc(C(F)(F)F)cc2)c1.O=C(O)C(=O)O (stereo not drawn) [Compound 24, 1-(3-(3-Acetamidophenyl)-3-(4-trifluoromethylphenoxy)propyl)piperidine, oxalate]",5.3
5,"FC(F)(F)c1ccc(OC(CCN2CCOCC2)c2ccccc2)cc1.O=C(O)C(=O)O (stereo not drawn) [Compound 3, 4-(3-Phenyl-3-(4-trifluoromethylphenoxy)propyl)morpholine, oxalate]",17
6,"N#Cc1ccc(C(CCN2CCCCC2)Oc2ccc(C(F)(F)F)cc2)cc1.O=C(O)C(=O)O (stereo not drawn) [Compound 25, 1-(3-(4-Cyanophenyl)-3-(4-trifluoromethylphenoxy)propyl)piperidine, oxalate]",2.2
7,"CN(C)CCC(Oc1ccc2c(c1)CCCC2)c1ccc([N+](=O)[O-])cc1.Cl (stereo not drawn) [Compound 17, N,N-dimethyl-3-(4-nitrophenyl)-3-(5,6,7,8-tetrahydro-2-naphthoxy)propanamine, hydrochloride]",4.9
8,"CN(C)CCC(Oc1cccc(C(F)(F)F)c1)c1ccc([N+](=O)[O-])cc1.Cl (stereo not drawn) [Compound 15, N,N-dimethyl-3-(4-nitrophenyl)-3-(3-trifluoromethylphenoxy)propanamine, hydrochloride]",6.1
9,"CN1CCN(CCC(Oc2ccc(C(F)(F)F)cc2)c2ccccc2)CC1 (stereo not drawn) [Compound 5, 1-(3-Phenyl-3-(4-trifluoromethylphenoxy)propyl)-4-methyl piperazine, oxalate]",7.5
